From patent publication US8859605B2, “Cysteine protease inhibitors” (Medivir UK Ltd, priority 2009, dated 2014)

Columns and labels:
human cathepsin L = human cathepsin L (Homo sapiens, UniProt P07711); test: Cathepsin L Ki (H-D-Val-Leu-Lys-AMC substrate); type: biochemical; details: pH 5.5, read-out: Ki Cat. L
Procedure: The procedure above with the following amendments is used for the determination of Ki for cathepsin L.
The enzyme is commercially available human cathepsin L (for example Calbiochem). The substrate is H-D-Val-Leu-Lys-AMC available from Bahcem. The assay buffer is 100 mM sodium acetate 1 mM EDTA, pH5.5) The DMSO stock (10 mM in 100% DMSO) is diluted to 10% in assay buffer. Enzyme is prepared at 5 nM concentration in assay buffer plus 1 mM dithiothreitol just before use. 2 μL of 10 mM inhibitor made up in 100% DMSO is dispensed into row A. 10 μL of 50 μM substrate (=1/200 dilution of 10 mM stock in DMSO, diluted in assay buffer).
(§1) Potential inhibitors are screened using the above assay with variable concentrations of test compound. Reactions were initiated by addition of enzyme to buffered solutions of substrate and inhibitor. Ki values were calculated according to equation 1.
(§2) [formula] where v0 is the velocity of the reaction, V is the maximal velocity, S is the concentration of substrate with Michaelis constant of KM, and I is the concentration of inhibitor.

[1] = target: T1, human recombinant cathepsin K (Homo sapiens, UniProt P43235); test: Determination of cathepsin K proteolytic catalytic activity (H-D-Ala-Leu-Lys-AMC substrate); type: biochemical; details: read-out: Ki Cat. K
T1 construct: made in house; host or cells: not fixed: E coli, Pichia or Baculovirus systems are named as options
T1 sequence (P43235 115-329): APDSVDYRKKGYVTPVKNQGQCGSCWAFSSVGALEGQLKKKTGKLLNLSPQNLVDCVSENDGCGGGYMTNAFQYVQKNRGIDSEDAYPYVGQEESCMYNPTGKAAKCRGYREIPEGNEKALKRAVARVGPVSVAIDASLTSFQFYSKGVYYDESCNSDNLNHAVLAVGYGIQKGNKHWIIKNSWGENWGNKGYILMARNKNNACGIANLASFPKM
Procedure: Determination of Cathepsin K Proteolytic Catalytic Activity
Convenient assays for cathepsin K are carried out using human recombinant enzyme, such as that described in PDB. • ID BC016058 standard; mRNA; HUM; 1699 BP. • DE Homo sapiens cathepsin K (pycnodysostosis), mRNA (cDNA clone MGC:23107 • RX MEDLINE; RX PUBMED; 12477932. • DR RZPD; IRALp962G1234. • DR SWISS-PROT; P43235;
The recombinant cathepsin K can be expressed in a variety of commercially available expression systems including E coli, Pichia and Baculovirus systems. The purified enzyme is activated by removal of the prosequence by conventional methods.
Standard assay conditions for the determination of kinetic constants used a fluorogenic peptide substrate, typically H-D-Ala-Leu-Lys-AMC, and were determined in either 100 mM Mes/Tris, pH 7.0 containing 1 mM EDTA and 10 mM 2-mercaptoethanol or 100 mMNa phosphate, imM EDTA, 0.1% PEG4000 pH 6.5 or 100 mM Na acetate, pH 5.5 containing 5 mM EDTA and 20 mM cysteine, in each case optionally with […] as stabiliser. The enzyme concentration used was 5 nM. The stock substrate solution was prepared at 10 mM in DMSO. Screens were carried out at a fixed substrate concentration of 60 μM and detailed kinetic studies with doubling dilutions of substrate from 250 μM. The total DMSO concentration in the assay was kept below 3%. All assays were conducted at ambient temperature. Product fluorescence (excitation at 390 nm, emission at 460 nm) was monitored with a Labsystems Fluoroskan Ascent fluorescent plate reader. Product progress curves were generated over 15 minutes following generation of AMC product.
as §1, §2

human cathepsin S = target: T2, human cathepsin S (Homo sapiens, UniProt P25774); test: Cathepsin S Ki determination (boc-Val-Leu-Lys-AMC fluorescent substrate); type: biochemical; details: baculovirus-expressed human cathepsin S, pH 6.5; read-out: Ki Cat. S
T2 construct: made in house; host or cells: baculovirus expression system
Procedure: Cathepsin S Ki Determination
The assay uses baculovirus-expressed human cathepsin S and the boc-Val-Leu-Lys-AMC fluorescent substrate available from Bachem in a 384 well plate format, in which 7 test compounds can be tested in parallel with a positive control comprising a known cathepsin S inhibitor comparator.
280 μL/well of 12.5% DMSO are added to rows B-H of two columns of a 96 deep well polypropylene plate. 70 μL/well of substrate is added to row A. 2×250 μL/well of assay buffer (100 mM Na phosphate, 100 mM NaCl, pH 6.5) is added to row A, mixed, and double diluted down the plate to row H.
100 μL/well of assay buffer is added to columns 2-5 and 7-12 of 4 rows of a 96 well V bottom polypropylene plate. 200 μL/well of assay buffer is added to columns 1 and 6.
2 μl of each 10 mM test compound is added to a separate well on row A, columns 1-10. Add 90 μl assay buffer containing 1 mM DTT and 2 nM cathepsin S to each well of rows B-H and 180 μl to row A. Mix row A using a multichannel pipette and double dilute to row G. Mix row H and read in the fluorescent spectrophotometer.
The second test compound is added to column 6 of the top row, the third to column 1 of the second row etc. Add 1 μL of comparator to column 6 of the bottom row. Mix column 1 and double dilute to column 5. Mix column 6 and double dilute to column 10. Using an 8-channel multistepping pipette set to 5×10 μL, distribute 10 μL/well of substrate to the 384 well assay plate. Distribute the first column of the substrate dilution plate to all columns of the assay plate starting at row A. The tip spacing of the multichannel pipette will correctly skip alternate rows. Distribute the second column to all columns starting at row B. Using a 12-channel multistepping pipette set to 4×10 μL, distribute 10 μL/well of inhibitor to the 384 well assay plate. Distribute the first row of the inhibitor dilution plate to alternate rows of the assay plate starting at A1. The tip spacing of the multichannel pipette will correctly skip alternate columns. Similarly, distribute the second, third and fourth rows to alternate rows and columns starting at A2, B1 and B2 respectively.
Mix 20 mL assay buffer and 20 μL 1M DTT. Add sufficient cathepsin S to give 2 nM final concentration.
Using the a distributor such as a Multidrop 384, add 30 μL/well to all wells of the assay plate and read in fluorescent spectrophotometer such as an Ascent.
Fluorescent readings, (excitation and emission wavelengths 390 nm and 460 nm respectively, set using bandpass filters) reflecting the extent of enzyme cleavage of the fluorescent substrate, […] the inhibitor, are linear rate fitted for each well.
Fitted rates for all wells for each inhibitor are fitted to the competitive inhibition equation using SigmaPlot 2000 to determine V, Km and Ki values.
as §1, §2

[2] = reference markers (passive transport, active transport, active efflux); cited from earlier work

Chain of human cathepsin L (P07711 114-333): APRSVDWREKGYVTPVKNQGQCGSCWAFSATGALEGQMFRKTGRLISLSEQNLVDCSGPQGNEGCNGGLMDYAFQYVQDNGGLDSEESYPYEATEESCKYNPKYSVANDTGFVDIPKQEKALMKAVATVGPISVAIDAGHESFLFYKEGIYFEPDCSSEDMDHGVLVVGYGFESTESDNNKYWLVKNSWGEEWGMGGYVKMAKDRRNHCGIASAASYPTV
T2 sequence (P25774 115-331): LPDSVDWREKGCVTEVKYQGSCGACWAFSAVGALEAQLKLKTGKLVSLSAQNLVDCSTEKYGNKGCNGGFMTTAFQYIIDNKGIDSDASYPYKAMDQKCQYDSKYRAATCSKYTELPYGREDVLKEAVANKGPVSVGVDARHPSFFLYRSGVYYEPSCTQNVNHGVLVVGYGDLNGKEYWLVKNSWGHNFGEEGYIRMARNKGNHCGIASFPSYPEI

Row | SMILES | Ki (human cathepsin L) [nM] | Ki [1] [nM] | Ki (human cathepsin S) [nM] | absorption in man (%) [2] [%]
1 | CCC(=O)N[C@@H](CC1(C)CCCC1)C(=O)N[C@]1(C(=O)C(=O)Nc2ccn(C)n2)C[C@@H](F)C1 [Example A1, N-[3-Fluoro-1-(1-methyl-1H-pyrazol-3-ylaminooxalyl)-cyclobutyl]-3-(1-methyl-cyclopentyl)-2-propionylamino-propionamide] | 3900 | 850 | 0.8 | 
2 | CC(=O)N[C@@H](CC1(C)CCCC1)C(=O)NC1(C(=O)C(=O)Nc2ccn(C)n2)CCC1 [Example A6] | 5200 | 580 | 0.81 | 
3 | CC(=O)N[C@@H](CC(C)(C)C)C(=O)NC1(C(=O)C(=O)Nc2ccn(C)n2)CC(F)(F)C1 [Example A15] | 6500 | 1200 | 20 | 
4 | COC1CC(NC(=O)[C@H](CC2(C)CCCC2)NC(C)=O)(C(=O)C(=O)NC2CC2)C1 (stereo partly drawn) [Example A16] | 33000 | 12000 | 10 | 
5 | COC1CC(NC(=O)[C@H](CC2(C)CCCC2)NC(=O)CCl)(C(=O)C(=O)NC2CC2)C1 (stereo partly drawn) [Example A19] | 25000 | 7400 | 5.6 | 
6 | N[C@@H](Cc1ccccc1)C(=O)O [L-Phenylalanine] |  |  |  | 100
7 | OC[C@@H](O)[C@@H](O)[C@H](O)[C@H](O)CO [Mannitol] |  |  |  | 16
8 | CN(Cc1cnc2nc(N)nc(N)c2n1)c1ccc(C(=O)N[C@@H](CCC(=O)O)C(=O)O)cc1 [Methotrexate] |  |  |  | 20

More lines, main results first:

Row | Ki (human cathepsin L) [nM] | Ki [1] [nM] | Ki (human cathepsin S) [nM] | SMILES | absorption in man (%) [2] [%]
9 | 870 | 340 | 3.8 | CC(=O)N[C@@H](CC1(C)CCC1)C(=O)NC1(C(=O)C(=O)Nc2ccn(C)n2)CC(F)(F)C1 [Example A13] | 
10 | 2300 | 1100 | 1 | CC(C)C(=O)N[C@@H](CC1(C)CCCC1)C(=O)NC1(C(=O)C(=O)Nc2ccn(C)n2)CC(F)(F)C1 [Example A25] | 
11 | 3300 | 720 | 1 | CC(C)C(=O)NC(CC1(F)CCCC1)C(=O)NC1(C(=O)C(=O)Nc2ccn(C)n2)CC(F)C1 (stereo not drawn) [Example A30] | 
12 | 1200 | 340 | 1.8 | COC1CC(NC(=O)[C@H](CC2(F)CCCC2)NC(=O)C(C)(C)C)(C(=O)C(=O)Nc2ccn(C)n2)C1 (stereo partly drawn) [Example A31] | 
13 | 380 | 1100 | 3 | Cn1ccc(NC(=O)C(=O)C2(NC(=O)[C@H](CC3(F)CCCC3)NC(=O)C(F)F)CC(F)(F)C2)n1 [Example A36] | 
14 | 1800 | 640 | 3 | [2H]C([2H])([2H])C(C(=O)N[C@@H](CC1(F)CCCC1)C(=O)NC1(C(=O)C(=O)Nc2ccn(C)n2)CC(F)(F)C1)(C([2H])([2H])[2H])C([2H])([2H])[2H] [Example A37] | 
15 | 860 | 510 | 1.2 | CCN(CC)C(=O)N[C@@H](CC1(C)CCCC1)C(=O)N[C@]1(C(=O)C(=O)Nc2ccn(C)n2)C[C@@H](F)C1 [Example U1, 2-(3,3-Diethyl-ureido)-N-[3-fluoro-1-(1-methyl-1H-pyrazol-3-ylaminooxalyl)-cyclobutyl]-3-(1-methyl-cyclopentyl)-propionamide] | 
16 | 2200 | 1300 | 1.3 | CC(C)NC(=O)N[C@@H](CC1(F)CCCC1)C(=O)N[C@]1(C(=O)C(=O)Nc2ccn(C)n2)C[C@@H](F)C1 [Example U2, 3-(1-Fluoro-cyclopentyl)-N-[3-fluoro-1-(1-methyl-1H-pyrazol-3-ylaminooxalyl)-cyclobutyl]-2-(3-isopropyl-ureido)-propionamide] | 
17 | 2100 | 620 | 0.63 | CCNC(=O)N[C@@H](CC1(F)CCCC1)C(=O)NC1(C(=O)C(=O)Nc2ccn(C)n2)CCC1 [Example U4] | 
